This note sets out measurements from patent US6300331A, “Naphthalimidobenzamide derivatives” (Taiho Pharmaceutical Co., Ltd., priority 1998, dated 2001).

The structures appear in SMILES notation. Structures can show the parent of a compound that is named as a salt. Where two headings read alike, the source gives them in different places.

For experiment [1], the system named is region abundant in guanine and cytosine. The experiment can be described thus: interaction with DNA region abundant in guanine and cytosine. The experiment is classed as binding. The source says: (§1) The naphthalimidobenzamide derivatives (1) or salts thereof according to the present invention are compounds synthesized to have a high affinity with DNA and base sequence selectivity. As a result of various investigations, it has been confirmed that the compounds of the present invention each has a high affinity with DNA based on the results of various tests including a test using ethidium bromide displacement assay or the like. It has also been confirmed that they have stronger affinities with respective base sequence regions.

A further experiment relates to KB cells. The experiment can be described thus: Cytotoxicity against KB cells (crystal violet dying method). The class given is cell-based. The following applies: Homo sapiens, read-out: Cytotoxicity [IC50 (μM)]. The method, then:
Test 1 Cytotoxicity against KB cells
The residue was re-suspended in an MEM medium containing 10% fetal bovine serum. Then, an equivalent amount of a 0.2% trypan blue solution was added to a portion of the cell suspension, followed by mixing. The number of living cells which had not been dyed with the trypan blue was counted by a hemocytometer and the suspension was diluted and adjusted with the above-described culture medium to give a cell concentration of 1×10^4 cells/ml. Each well of a 96-well plate was inoculated with a 100-μl portion of the resulting suspension, in other words, was inoculated to give a concentration of 1×10^3 cells/well.
To the cells cultured in a CO2 incubator for 24 hours after the inoculation was added 100 μl/well of a medicament solution, followed by culturing for 72 hours. To a control was added 100 μl of an MEM medium.
The cytotoxicity of the medicament was determined from a change in the number of the cells by using the crystal violet dying method.
After washing the plate with water, 100 μl/well of a 0.05% crystal violet solution dissolved in 20% methanol was added to dye the cells therewith for about 15 minutes. The plate was washed to remove the unbound crystal violet, followed by the addition of 100 μl/well of 0.05M NaH2 PO4 /ethanol (1:1 v/v), whereby the crystal violet bound to the cellular protein was extracted.

Experiment [2] relates to region abundant in adenine and thymine. Put plainly: interaction with DNA region abundant in adenine and thymine. The class given is binding.
Description: as §1

The test system of experiment [3] is human gastric cancer strains AZ521. The experiment can be described thus: antitumor test in nude mouse subcutaneously transplanted with human gastric cancer strains AZ521. The class given is in vivo.
In experiment [4] the test system is human breast cancer strains MX1. The experiment can be described thus: antitumor test in nude mouse subcutaneously transplanted with human breast cancer strains MX1. The experiment is classed as in vivo.
Experiment [5] deals with human pancreatic cancer strains PAN6. The experiment can be described thus: antitumor test in nude mouse subcutaneously transplanted with human pancreatic cancer strains PAN6. The class given is in vivo.
Experiment [6] has as its system human skin cancer strains LOX. Put plainly: antitumor test in nude mouse subcutaneously transplanted with human skin cancer strains LOX. The experiment is classed as in vivo.
The mark [7] stands for this setting: KB cells, 72 hours, 50% proliferation inhibition.

For the compound `O=C(NCCNCCN1C(=O)c2cccc3cc([N+](=O)[O-])cc(c23)C1=O)c1cc(C(=O)NCCNCCN2C(=O)c3cccc4cc([N+](=O)[O-])cc(c34)C2=O)cc(N2C(=O)c3cccc4cc([N+](=O)[O-])cc(c34)C2=O)c1` [Example 4, 1,3-bis[N-[2-[[2-(3-nitro-1,8-naphthalimido)ethyl]amino]ethyl]carbamoyl]-5-(3-nitro-1,8-naphthalimido)benzene dihydrochloride], in experiment [1], the “interaction with a region abundant in guanine and cytosine” value is reported as “strong interaction”. Also, in the experiment on KB cells (setting [7]), the IC50 – broadly, the concentration at which inhibition is half-maximal – was determined as 0.048 µM.
In the case of `Cn1cc(NC(=O)c2cc(NC=O)cn2C)cc1C(=O)NCCNCCNC(=O)c1cc(C(=O)NCCNCCNC(=O)c2cc(NC(=O)c3cc(NC=O)cn3C)cn2C)cc(N2C(=O)c3cccc4cc([N+](=O)[O-])cc(c34)C2=O)c1` [Example 30, 1,3-bis[N-[2-[[2-[4-(4-formamido-1-methylpyrrole-2-carbonylamino)-1-methylpyrrole-2-carbonylamino]ethyl]amino]ethyl]carbamoyl]-5-(3-nitro-1,8-naphthalimido)benzene dihydrochloride], the “interaction with a region abundant in adenine and thymine” value in experiment [2] is given as “strong interaction”.
Turning to `CN(C)CCCNC(=O)c1cc(C(=O)NCCNCCN2C(=O)c3cccc4cc([N+](=O)[O-])cc(c34)C2=O)cc(N2C(=O)c3cccc4cc([N+](=O)[O-])cc(c34)C2=O)c1` [Example 41, 1-[N-(3-dimethylaminopropyl)carbamoyl]-3-(3-nitro-1,8-naphthalimido)-5-[N-[2-[[2-(3-nitro-1,8-naphthalimido)ethyl]amino]ethyl]carbamoyl]benzene hydrochloride], the IC50 in the experiment on KB cells (setting [7]) is 3.1 µM.
Same read-out and setting: the value for `CN(C)CCNC(=O)c1cc(C(=O)NCCNCCN2C(=O)c3cccc4cc([N+](=O)[O-])cc(c34)C2=O)cc(N2C(=O)c3cccc4cc([N+](=O)[O-])cc(c34)C2=O)c1` [Example 42, 1-[N-(2-dimethylaminoethyl)carbamoyl]-3-(3-nitro-1,8-naphthalimido)-5-[N-[2-[[2-(3-nitro-1,8-naphthalimido)ethyl]amino]ethyl]carbamoyl]benzene hydrochloride] was 0.15 µM.
Still for that read-out and setting: the value for `CNC(=O)c1cc(C(=O)NCCNCCN2C(=O)c3cccc4cc([N+](=O)[O-])cc(c34)C2=O)cc(N2C(=O)c3cccc4cc([N+](=O)[O-])cc(c34)C2=O)c1` [Example 43, 1-methylcarbamoyl-3-(3-nitro-1,8-naphthalimido)-5-[N-[2-[[2-(3-nitro-1,8-naphthalimido)ethyl]amino]ethyl]carbamoyl]benzene hydrochloride] was 0.025 µM; that for `O=C(NCCNCCN1C(=O)c2cccc3cc([N+](=O)[O-])cc(c23)C1=O)c1cc(C(=O)NCCN2CCCC2)cc(N2C(=O)c3cccc4cc([N+](=O)[O-])cc(c34)C2=O)c1` [Example 45, 1-(3-nitro-1,8-naphthalimido)-3-[N-[2-[[2-(3-nitro-1,8-naphthalimido)ethyl]amino]ethyl]carbamoyl]-5-[N-(2-pyrrolidinoethyl)carbamoyl]benzene hydrochloride] was 0.066 µM.
Regarding `O=C(NCCNCCN1C(=O)c2cccc3cc([N+](=O)[O-])cc(c23)C1=O)c1cc(C(=O)NCCN2CCCCC2)cc(N2C(=O)c3cccc4cc([N+](=O)[O-])cc(c34)C2=O)c1` [Example 46, 1-(3-nitro-1,8-naphthalimido)-3-[N-[2-[[2-(3-nitro-1,8-naphthalimido)ethyl]amino]ethyl]carbamoyl]-5-[N-(2-piperidinoethyl)carbamoyl]benzene hydrochloride], the “inhibitory effects against tumor proliferation” value in experiment [3] stood at 79.5%; in experiment [4] it was 71.8%; in experiment [5], 59.8%; in experiment [6] it was 96.2%. In the experiment with KB cells (KB, 72 h), the IC50 turned out to be 0.053 µM.
On to `O=C(NCCNCCN1C(=O)c2cccc3cccc(c23)C1=O)c1cc(C(=O)NCCN2CCCCC2)cc(N2C(=O)c3cccc4cc([N+](=O)[O-])cc(c34)C2=O)c1` [Example 47, 1-[N-[2-[[2-(1,8-naphthalimido)ethyl]amino]ethyl]carbamoyl]-3-(3-nitro-1,8-naphthalimido)-5-[N-(2-piperidinoethyl)carbamoyl]benzene hydrochloride], for which the IC50 in the experiment with KB cells (setting [7]) worked out at 0.0035 µM.
The same measure, in the same setting: the value for `O=C(NCCNCCN1C(=O)c2cccc3cc([N+](=O)[O-])cc(c23)C1=O)c1cc(C(=O)N2CCOCC2)cc(N2C(=O)c3cccc4cc([N+](=O)[O-])cc(c34)C2=O)c1` [Example 48, 1-morpholinocarbonyl-3-(3-nitro-1,8-naphthalimido)-5-[N-[2-[[2-(3-nitro-1,8-naphthalimido)ethyl]amino]ethyl]carbamoyl]benzene hydrochloride] was 0.052 µM; that for `CN1CCN(C(=O)c2cc(C(=O)NCCNCCN3C(=O)c4cccc5cc([N+](=O)[O-])cc(c45)C3=O)cc(N3C(=O)c4cccc5cc([N+](=O)[O-])cc(c45)C3=O)c2)CC1` [Example 49, 1-(4-methylpiperazino)carbonyl-3-(3-nitro-1,8-naphthalimido)-5-[N-[2-[[2-(3-nitro-1,8-naphthalimido)ethyl]amino]ethyl]carbamoyl]benzene hydrochloride] was 0.035 µM; that for `CN1CCN(C(=O)c2cc(C(=O)NCCNCCN3C(=O)c4cccc5cc([N+](=O)[O-])cc(c45)C3=O)cc(N3C(=O)c4cccc5cccc(c45)C3=O)c2)CC1` [Example 50, 1-(4-methylpiperazino)carbonyl-3-(1,8-naphthalimido)-5-[N-[2-[[2-(3-nitro-1,8-naphthalimido)ethyl]amino]ethyl]carbamoyl]benzene hydrochloride] was 0.022 µM.
Still for that read-out and setting: the value for `CN1CCN(C(=O)c2cc(C(=O)NCCNCCN3C(=O)c4cccc5cccc(c45)C3=O)cc(N3C(=O)c4cccc5cccc(c45)C3=O)c2)CC1` [Example 51, 1-(4-methylpiperazino)carbonyl-3-(1,8-naphthalimido)-5-[N-[2-[[2-(1,8-naphthalimido)ethyl]amino]ethyl]carbamoyl]benzene hydrochloride] was 0.025 µM; that for `CCN1CCN(C(=O)c2cc(C(=O)NCCNCCN3C(=O)c4cccc5cccc(c45)C3=O)cc(N3C(=O)c4cccc5cc([N+](=O)[O-])cc(c45)C3=O)c2)CC1` [Example 53, 1-(4-ethylpiperazino)carbonyl-3-[N-[2-[[2-(1,8-naphthalimido)ethyl]amino]ethyl]carbamoyl]-5-(3-nitro-1,8-naphthalimido)benzene hydrochloride] was 0.013 µM; that for `O=C(NCCNCCN1C(=O)c2cccc3cc([N+](=O)[O-])cc(c23)C1=O)c1cc(C(=O)N2CCC(N3CCCCC3)CC2)cc(N2C(=O)c3cccc4cc([N+](=O)[O-])cc(c34)C2=O)c1` [Example 55, 1-(3-nitro-1,8-naphthalimido)-3-[N-[2-[[2-(3-nitro-1,8-naphthalimido)ethyl]amino]ethyl]carbamoyl]-5-(4-piperidinopiperidino)carbonylbenzene hydrochloride] was 0.11 µM.
The same measure, in the same setting: the value for `CN1CCN(C(=O)c2cc(C(=O)NCCCNCCN3C(=O)c4cccc5cc([N+](=O)[O-])cc(c45)C3=O)cc(N3C(=O)c4cccc5cc([N+](=O)[O-])cc(c45)C3=O)c2)CC1` [Example 56 (A), 1-(4-methylpiperazino)carbonyl-3-(3-nitro-1,8-naphthalimido)-5-[N-[3-[[2-(3-nitro-1,8-naphthalimido)ethyl]amino]propyl]carbamoyl]benzene hydrochloride] was 0.039 µM; that for `CN1CCN(C(=O)c2cc(C(=O)NCCNCCCN3C(=O)c4cccc5cc([N+](=O)[O-])cc(c45)C3=O)cc(N3C(=O)c4cccc5cc([N+](=O)[O-])cc(c45)C3=O)c2)CC1` [Example 56 (B), 1-(4-methylpiperazino)carbonyl-3-(3-nitro-1,8-naphthalimido)-5-[N-[2-[[3-(3-nitro-1,8-naphthalimido)propyl]amino]ethyl]carbamoyl]benzene hydrochloride] was 0.12 µM.
